Assays:
[1] = test system: wheat powdery mildew (BLumeria graminis); test: Whole-plant fungicidal test, protectant activity, wheat powdery mildew; assay type: in vivo; settings: for control against wheat powdery mildew: 500 mg/L
[2] = test system: cucumber downy mildew (Pseudoperonospora cubenis); test: Whole-plant fungicidal test, cucumber downy mildew; assay type: in vivo, Pseudoperonospora cubensis
[3] = test system: green peach aphids (Myzus persicae); test: Insecticidal activity, green peach aphids, spraying; settings: 200 mg/L; mortality after two days
Method: (§1) Determination of insecticidal and acaricidal activities of selected compounds were carried out by following procedure:
(§2) Technical samples were dissolved in mixed solvent (acetone:methanol=1:1), and diluted to required concentration with water containing 0.1% of tween 80.
(§3) The second instar larvae of armyworm (Leucania separata), diamond backmoth (Plutella xylostella) and culex mosquitoes (Culex pipiens pallens), green peach aphids (Myzus persicae) and mite (Tetranychus cinnabarinus) were used in biological test. The method was employed either spraying by airbrush or immersing (larvae of culex mosquitoes). A test solution (0.5 mL) was sprayed at the pressure of 10 psi (about 0.7 kg/cm^2). Percent mortality was determined after two days.

[4] = test system: cucumber grey mold (Botrytis cinerea); test: Whole-plant fungicidal test, cucumber grey mold; assay type: in vivo; settings: 500 mg/L
[5] = test system: rice sheath blight (Rhizoctonia solani); test: Whole-plant fungicidal test, protectant activity, rice sheath blight; assay type: in vivo
wheat powdery mildew = test: Whole-plant fungicidal test, curative activity, wheat powdery mildew; assay type: in vivo, Erysiphe graminis; settings: for inhibition at 0.39 µg/mL / inhibition at 0.78 µg/mL / inhibition at 1.56 µg/mL / inhibition at 3.125 µg/mL / inhibition at 6.25 µg/mL / inhibition at 12.5 µg/mL: Triticum aestivum, 96 h, read-out: 4 day curative activity (%) against wheat powdery mildew
[6] = test system: cucumber anthracnose (Colletotrichum lagenarium); test: Whole-plant fungicidal test, cucumber anthracnose; assay type: in vivo
[7] = test system: rice blast (Pyricularia oryzae); assay type: in vivo; settings: in words
[8] = test system: tomato late blight (Phytophthora infestans); assay type: in vivo; settings: in words
[9] = test system: cucumber powdery mildew (Sphaerotheca fuliginea); test: Whole-plant fungicidal test, cucumber powdery mildew; assay type: in vivo; settings: in words
[10] = test system: cucumber scab (Cladosporium cucumerinum); test: Whole-plant fungicidal test, cucumber scab; assay type: in vivo; settings: in words
[11] = test system: apple alternaria rot (valsa mali); test: Whole-plant fungicidal test, apple alternaria rot; assay type: in vivo; settings: in words
[12] = test system: rape sclerotinia stem rot (Sclerotinia sclerotiorum); test: Whole-plant fungicidal test, rape sclerotinia stem rot; assay type: in vivo; settings: in words
[13] = test system: tomato cercospora leaf mold (Fulvia fulva); test: Whole-plant fungicidal test, tomato cercospora leaf mold; assay type: in vivo; settings: in words
[14] = test system: corn southern leaf blight (Helminthosporium maydis); test: Whole-plant fungicidal test, corn southern leaf blight; assay type: in vivo; settings: in words
Method: Protectant and curative activity of experimental compounds are tested with whole plants. […] For the protectant method, test solution was sprayed onto potted plant. Pathogen inoculation was carried out after 24 hours then plants were hold in growth chambers containing constant temperature and moisture for effect. When untreated plant was under desirable disease severity (after 1 week approximately), assessment were carried out by visual observation. Test plant inoculated with fungus for 4 days are sprayed with the solution of a compound and then cultured in green house for 3-4 days. The curative activity is assessed based on the control plant's index of disease.

[15] = test system: wheat head blight (Fusarium graminearum); assay type: in vivo; settings: in words
[16] = test system: diamond backmoth (Plutella xylostella); test: Insecticidal activity, diamond backmoth, spraying; settings: 200 mg/L; mortality after two days
Method: as §1, §2, §3

COC(=O)N(OC)c1ccccc1COc1cc(-c2ccc(C)cc2)nn1C [Compound 16]
control against wheat powdery mildew [1]: 100%

CON=C(C(=O)OC)c1ccccc1COc1cc(-c2cccs2)nn1C [Compound 391]
control against cucumber downy mildew ([2]; 500 mg/L): 90%

COC(=O)N(OC)c1ccccc1COc1cc(-c2ccc(Cl)cc2Cl)nn1C [Compound 10]
control against wheat powdery mildew [1]: 100%
control against cucumber downy mildew ([2]; 500 mg/L): 100%

COC=C(C(=O)OC)c1ccccc1-c1cc(Oc2cc(-c3ccc(Cl)cc3)nn2C(C)C)ncn1 [Compound 194]
control against cucumber downy mildew ([2]; 500 mg/L): 100%

COC(=O)N(OC)c1ccccc1COc1cc(-c2ccc(Br)cc2)nn1C [Compound 15]
control against cucumber downy mildew ([2]; 25 mg/L): 100%
control against cucumber downy mildew ([2]; 500 mg/L): 100%
control of green peach aphids [3]: 90%

COC(=O)N(OC)c1ccccc1COc1cc(-c2ccc(Cl)nc2)nn1C [Compound 21]
control against wheat powdery mildew [1]: 100%
control against cucumber grey mold [4]: 100%

CNC(=O)C(=NOC)c1ccccc1COc1cc(-c2cccs2)nn1C [Compound 415]
control against cucumber downy mildew ([2]; 500 mg/L): 100%

COC(=O)N(OC)c1ccccc1COc1cc(-c2ccccc2)nn1C [Compound 1]
control against cucumber downy mildew ([2]; 500 mg/L): 100%

COC(=O)N(OC)c1ccccc1COc1c(C)c(-c2ccc(C)cc2)nn1C [Compound 78]
control against wheat powdery mildew [1]: 100%
control against cucumber downy mildew ([2]; 25 mg/L): 100%
control against cucumber downy mildew ([2]; 500 mg/L): 100%

COC(=O)NC(=S)Nc1ccccc1NC(=S)NC(=O)OC [triophanate-methyl, reference compound]
1 day protection activity (%) against rice sheath blight ([5]; 1.5625 mg/L): 0%
1 day protection activity (%) against rice sheath blight ([5]; 3.125 mg/L): 0%
1 day protection activity (%) against rice sheath blight ([5]; 6.25 mg/L): 0%
1 day protection activity (%) against rice sheath blight ([5]; 12.5 mg/L): 0%
1 day protection activity (%) against rice sheath blight ([5]; 25 mg/L): 20%
1 day protection activity (%) against rice sheath blight ([5]; 50 mg/L): 55%
1 day protection activity (%) against rice sheath blight ([5]; 100 mg/L): 75%

CC(C)(C)C(O)(CCc1ccc(Cl)cc1)Cn1cncn1 (stereo not drawn) [tebuconazole]
inhibition at 0.39 µg/mL (wheat powdery mildew; 0.39 mg/L): 0%
inhibition at 0.78 µg/mL (wheat powdery mildew; 0.78 mg/L): 0%
inhibition at 1.56 µg/mL (wheat powdery mildew; 1.56 mg/L): 15%
inhibition at 3.125 µg/mL (wheat powdery mildew; 3.125 mg/L): 45%
inhibition at 6.25 µg/mL (wheat powdery mildew; 6.25 mg/L): 70%
inhibition at 12.5 µg/mL (wheat powdery mildew; 12.5 mg/L): 85%

COC(=O)N(OC)c1ccccc1COc1cc(-c2ccccc2Cl)nn1C [Compound 20]
control against wheat powdery mildew [1]: 100%
control against cucumber downy mildew ([2]; 25 mg/L): 100%
control against cucumber downy mildew ([2]; 500 mg/L): 100%

COC(=O)N(OC)c1ccccc1COc1cc(-c2ccc(SC)cc2)nn1C [Compound 8]
control against cucumber downy mildew ([2]; 500 mg/L): 100%

COC=C(C(=O)OC)c1ccccc1COc1cc(-c2cccs2)nn1C [Compound 367]
control against cucumber downy mildew ([2]; 500 mg/L): 100%

COC(=O)N(OC)c1ccccc1COc1c(C)c(-c2ccccc2)nn1C [Compound 63]
1 day protection activity (%) against wheat powdery mildew ([1]; 0.19 mg/L): 55%
1 day protection activity (%) against wheat powdery mildew ([1]; 0.39 mg/L): 75%
1 day protection activity (%) against wheat powdery mildew ([1]; 0.78 mg/L): 95%
1 day protection activity (%) against wheat powdery mildew ([1]; 1.56 mg/L): 100%
1 day protection activity (%) against wheat powdery mildew ([1]; 3.125 mg/L): 100%
1 day protection activity (%) against wheat powdery mildew ([1]; 6.25 mg/L): 100%
1 day protection activity (%) against wheat powdery mildew ([1]; 12.5 mg/L): 100%
1 day protection activity (%) against wheat powdery mildew ([1]; 25 mg/L): 100%
control against wheat powdery mildew [1]: 100%
activity against wheat powdery mildew ([1]; in words): excellent activity
control against cucumber downy mildew ([2]; 25 mg/L): 100%
control against cucumber downy mildew ([2]; 500 mg/L): 100%
activity against cucumber downy mildew ([2]; in words): excellent activity
control against cucumber anthracnose ([6]; 1.56 mg/L): 100%
control against cucumber anthracnose ([6]; 100 mg/L): 100%
activity against cucumber anthracnose ([6]; in words): excellent activity
1 day protection activity (%) against rice sheath blight ([5]; 1.5625 mg/L): 55%
1 day protection activity (%) against rice sheath blight ([5]; 3.125 mg/L): 60%
1 day protection activity (%) against rice sheath blight ([5]; 6.25 mg/L): 65%
1 day protection activity (%) against rice sheath blight ([5]; 12.5 mg/L): 75%
1 day protection activity (%) against rice sheath blight ([5]; 25 mg/L): 80%
1 day protection activity (%) against rice sheath blight ([5]; 50 mg/L): 100%
1 day protection activity (%) against rice sheath blight ([5]; 100 mg/L): 100%
activity against rice sheath blight ([5]; in words): excellent activity
4 day curative activity (%) against wheat powdery mildew (wheat powdery mildew; 0.39 mg/L): 50%
4 day curative activity (%) against wheat powdery mildew (wheat powdery mildew; 0.78 mg/L): 80%
4 day curative activity (%) against wheat powdery mildew (wheat powdery mildew; 1.56 mg/L): 100%
4 day curative activity (%) against wheat powdery mildew (wheat powdery mildew; 3.125 mg/L): 100%
4 day curative activity (%) against wheat powdery mildew (wheat powdery mildew; 6.25 mg/L): 100%
4 day curative activity (%) against wheat powdery mildew (wheat powdery mildew; 12.5 mg/L): 100%
activity against rice blast [7]: excellent activity
activity against tomato late blight [8]: excellent activity
activity against cucumber powdery mildew [9]: excellent activity
activity on cucumber scab [10]: good activity
activity on apple alternaria rot [11]: good activity
activity on rape sclerotinia stem rot [12]: good activity
activity against tomato cercospora leaf mold [13]: moderate activity
activity against corn southern leaf blight [14]: moderate activity
activity against wheat head blight [15]: moderate activity
control of diamond backmoth [16]: 100%

COC(=O)N(OC)c1ccccc1COc1cc(-c2ccc(Cl)cc2)nn1C(C)C [Compound 11]
control against cucumber downy mildew ([2]; 500 mg/L): 90%

CO/N=C(/C(=O)OC)c1ccccc1COc1ccccc1C [Kresoxim methyl, reference compound]
inhibition at 0.39 µg/mL ([1]; Blumeria graminis, 24 h, 0.39 mg/L, read-out: 1 day protection activity (%) against wheat powdery mildew): 0%
inhibition at 0.78 µg/mL ([1]; Blumeria graminis, 24 h, 0.78 mg/L, read-out: 1 day protection activity (%) against wheat powdery mildew): 15%
inhibition at 1.56 µg/mL ([1]; Blumeria graminis, 24 h, 1.56 mg/L, read-out: 1 day protection activity (%) against wheat powdery mildew): 40%
inhibition at 3.125 µg/mL ([1]; Blumeria graminis, 24 h, 3.125 mg/L, read-out: 1 day protection activity (%) against wheat powdery mildew): 70%
inhibition at 6.25 µg/mL ([1]; Blumeria graminis, 24 h, 6.25 mg/L, read-out: 1 day protection activity (%) against wheat powdery mildew): 98%
inhibition at 12.5 µg/mL ([1]; Blumeria graminis, 24 h, 12.5 mg/L, read-out: 1 day protection activity (%) against wheat powdery mildew): 100%
inhibition at 25 µg/mL ([1]; Blumeria graminis, 24 h, 25 mg/L, read-out: 1 day protection activity (%) against wheat powdery mildew): 100%
inhibition at 0.39 µg/mL (wheat powdery mildew; 0.39 mg/L): 0%
inhibition at 0.78 µg/mL (wheat powdery mildew; 0.78 mg/L): 0%
inhibition at 1.56 µg/mL (wheat powdery mildew; 1.56 mg/L): 10%
inhibition at 3.125 µg/mL (wheat powdery mildew; 3.125 mg/L): 15%
inhibition at 6.25 µg/mL (wheat powdery mildew; 6.25 mg/L): 20%
inhibition at 12.5 µg/mL (wheat powdery mildew; 12.5 mg/L): 100%

COC(=O)N(OC)c1ccccc1COc1ccn(-c2ccc(Cl)cc2)n1 [pyraclostrobin]
inhibition at 0.39 µg/mL (wheat powdery mildew; 0.39 mg/L): 0%
inhibition at 0.78 µg/mL (wheat powdery mildew; 0.78 mg/L): 25%
inhibition at 1.56 µg/mL (wheat powdery mildew; 1.56 mg/L): 60%
inhibition at 3.125 µg/mL (wheat powdery mildew; 3.125 mg/L): 85%
inhibition at 6.25 µg/mL (wheat powdery mildew; 6.25 mg/L): 100%
inhibition at 12.5 µg/mL (wheat powdery mildew; 12.5 mg/L): 100%
